Experimental findings from patent US8969542B2, “HPV polyepitope constructs and uses thereof” (priority 2007, dated 2015) are described below.

The target of one assay is HLA A3002 (Homo sapiens, UniProt P04439, D101N/D140H/D185E/E176R/F33S/G80R/H175R/K168Q/Q94H/R138E/R41S/V100E). The assay can be described thus: HLA class I competition binding assay using soluble HLA.
The target of the next assay is HLA A2302 (Homo sapiens, UniProt P04439, D101N/D140Y/D185E/E176V/E190D/F33S/G103R/G107R/H175R/I119L/I121M/I306V/K168Q/K335N/L105A/L180W/L300P/N151K/N90K/P307H/Q86E/Q94H/R106L/R138H/R89G/T104I/T345S/V100E/W191G/Y123F). Described as above.
The target in the next assay is HLA A2402 (Homo sapiens, UniProt P04439, D101N/D140Y/D185E/E176V/E190D/F33S/G103R/G107R/I119L/I121M/I306V/K335N/L105A/L180Q/L300P/N151K/N90K/Q86E/Q94H/R106L/R138H/R89G/T104I/T345S/V100E/W191G/Y123F). The description is as above.
For another assay, the target named is HLA A2902 (Homo sapiens, UniProt P04439, A270S/D101N/D185E/E176V/E277Q/E87Q/F33T/G231S/H175R/I121M/I218V/I322F/K168Q/L300P/L318F/M331R/P208A/P217A/Q86L/T323A/T345S/V100A/V358M). The description is as above.
For the next assay, the target named is HLA A3101 (Homo sapiens, UniProt P04439, A270S/D185E/E176V/E277Q/F33T/G231S/G80R/H175R/I121M/I218V/I322F/K168Q/L300P/L318F/M331R/P217A/Q94H/R138Q/T323A/T345S/T97I/V358M). Described as above.
Another assay deals with HLA A6801 (Homo sapiens, UniProt P04439, A269V/D185E/E176V/E277Q/E87N/F33Y/G231S/I121M/I166T/I218V/L180W/L300P/L318F/N151K/P208A/P217A/Q86R/R169H/T345S). The description is as above.
Assay [1] deals with CD8+ spleen cells of HLA transgenic mice (HLA-A01/Kb, F1 HLA-A02/KbxBalb/c, HLA-A11/Kb, HLA-A24/Kb). The assay can be described thus: Immunogenicity after peptide pool/IFA immunization, direct ex vivo IFNγ ELISPOT. The class given is in vivo, mouse. The settings on record: for Delta SFC/10^6 cells / Ratio: Peptide Pool; for Peptide Pool SFC/10^6 cells Delta / Peptide Pool SFC/10^6 cells Ratio: immunization with pool of peptides emulsified in IFA, IFNγ ELISPOT; for Peptide Pool SFC/10^6 cells Delta: HLA transgenic mice (HLA-A01/A02/A11/A24), CD8+ cells restimulated with WT peptide 10 μg/mL; for Peptide Pool SFC/10^6 cells Ratio: HLA transgenic mice, response ratio, WT peptide 10 μg/mL. As to the method: CTL binding epitopes were evaluated for their immunogenicity in different HLA transgenic mice. To this, a single immunization with CTL peptide pools together with a common HTL epitope emulsified in IFA was performed and up to 14 days later, CD8+ spleen cells were isolated and evaluated for epitope specificity using a direct ex vivo IFNγ ELISPOT assay.
Peptides were dissolved in DMSO at a concentration of 10 mg/mL. For each of the 4 DNA constructs, the corresponding HLA-restricted peptides were pooled per HLA type (5 to 7 CTL peptides/pool). A known HTL peptide ([…]) was added and the peptide pools were diluted in PBS to the required peptide concentration (i.e. 25 μg of each CTL peptide and 120 μg HTL peptide in 50 μl). After adding an equal volume of IFA (Pierce, lot DG56079), the mixture was emulsified by forcing it through a small orifice. Mice were immunized subcutaneously at the base of the tail with 50 μl peptide/IFA mixture.
As negative control for the peptide-immunized mice, 18 mice (in total) were injected with a PBS/IFA mixture.
(§1) Mice were euthanized and spleen cells (SPC) were isolated 13 days after immunization. […] Spleen cells of DNA- and peptide-immunized HLA-A11/Kb mice were analyzed individually. SPC of all negative control mice were pooled per 2 mice, resulting in 3 data points for each peptide tested.
(§2) A direct ex vivo IFNγ ELISPOT assay was used as surrogate CTL readout. Basically, purified CD8+ cells were incubated with the individual HPV-specific HLA-restricted peptides (10 μg/mL) loaded on the appropriate antigen presenting cells (APC), in anti-mouse IFNγ antibody-coated ELISPOT plates. […] After 20 h incubation, IFNγ-producing cells were visualized by further developing the plates with biotinylated anti-mouse IFNγ antibody, streptavidin-HRP and AEC as substrate.
(§3) Some of the CTL epitopes included in the DNA constructs are analoged sequences of the wild type viral epitopes. For these particular epitopes, only the wild type sequences were used as in vitro stimulus for CTL readout.

Assay [2] has the same test system. As to the kind of experiment: Immunogenicity after HPV DNA construct immunization, direct ex vivo IFNγ ELISPOT. The class given is in vivo, mouse. The settings on record: for ICCG6137 SFC/10^6 cells Delta / ICCG6137 SFC/10^6 cells Ratio: immunization with DNA construct ICCG 6137; for ICCG6137 SFC/10^6 cells Delta / ICCG6138 SFC/10^6 cells Delta: HLA transgenic mice (HLA-A01/A02/A11/A24), CD8+ cells restimulated with WT peptide 10 μg/mL; for ICCG6137 SFC/10^6 cells Delta / ICCG6137 SFC/10^6 cells Ratio / ICCG6138 SFC/10^6 cells Delta / ICCG6138 SFC/10^6 cells Ratio: IFNγ ELISPOT; for ICCG6137 SFC/10^6 cells Ratio / ICCG6138 SFC/10^6 cells Ratio: HLA transgenic mice, response ratio, WT peptide 10 μg/mL; for ICCG6138 SFC/10^6 cells Delta / ICCG6138 SFC/10^6 cells Ratio: immunization with DNA construct ICCG 6138. As to the method: The immunogenicity of HPV HLA class I-restricted epitopes encoded in the DNA constructs was tested in the relevant HLA transgenic mice. […] To ensure an equal distribution of mice between different groups, a randomisation procedure based on body weight was performed. Female and male mice (age between 8 and 24 weeks) were ranked by body weight, extreme light or heavy animals were excluded. The remaining animals were grouped by sequentially assigning animals for the 2 experiments.
Mice were pre-treated with cardiotoxin (Sigma, C9759) on day −4 by bilateral intramuscular injection of 100 μl (2×50 μl) of a 10 μM cardiotoxin solution. Four days later, all mice were immunised with 100 μg HPV-DNA plasmid (diluted to 1 mg/ml in PBS) by bilateral injection of 50 μg in the m. tibialis anterior. […]
as §1, §2, §3

The mark [3] stands for this setting: HLA-A24 epitopes, HLA-A24/Kb mice, median of mouse pools.
Setting [4] is: HLA-A24 epitopes, HLA-A24/Kb mice, DNA construct ICCG6149, median of mouse pools.
The mark [5] stands for this setting: HLA-A24 epitopes, HLA-A24/Kb mice, DNA construct ICCG6150, median of mouse pools.
Where [6] appears, read: HLA-A02 epitopes, F1 HLA-A02/KbxBalb/c mice, median of mouse pools.
[7] abbreviates: HLA-A02 epitopes, F1 HLA-A02/KbxBalb/c mice, DNA construct ICCG6149, median of mouse pools.
[8] abbreviates: HLA-A02 epitopes, F1 HLA-A02/KbxBalb/c mice, DNA construct ICCG6150, median of mouse pools.
[9] abbreviates: HLA-A11 epitopes, HLA-A11/Kb mice, median.
The mark [10] stands for this setting: HLA-A11 epitopes, HLA-A11/Kb mice, DNA construct ICCG6149, median.
Setting [11] is: HLA-A11 epitopes, HLA-A11/Kb mice, DNA construct ICCG6150, median.

Where no end group is shown, it is not given here. A value given as a limit tells only on which side of the number the result lay.

The term IC50 denotes the point on the concentration scale where inhibition reaches its midpoint. A high value points to a need for much substance.

Turning to LSSALEIPY [compound 46], the IC50 at HLA A3002 is 175 nM.
Consider FYSRIRELRF [compound 88], for which the IC50 was 1 nM on HLA A2302, 3.2 nM at HLA A2402 and above 20000 nM at HLA A3002.
For YYMTDAGTW [compound 40], the IC50 on HLA A2902 was 3410 nM; on HLA A2402, 3.2 nM.
In the case of VVFIYIPLF [compound 64], the IC50 at HLA A2902 amounted to 302 nM; on HLA A2402, 276 nM; on HLA A3002, 268 nM.
With LYNLLIRCF [compound 44], the concentration for half-maximal inhibition (IC50) was above 20000 nM on HLA A2902 and 10 nM on HLA A2302.
On HLA A3101, TVSATQLVK [compound 33] came in with an IC50 of 6140 nM.
With RQMNMSQWIK [compound 79], the results for the IC50 on HLA A6801 and on HLA A3101 were 2560 nM and 45 nM, respectively.
`CC[C@H](C)[C@H](NC(=O)[C@H](Cc1ccc(O)cc1)NC(=O)[C@H](Cc1ccccc1)NC(=O)[C@@H](NC(=O)[C@H](CC(N)=O)NC(=O)[C@H](Cc1ccc(O)cc1)NC(=O)CN)[C@@H](C)O)C(=O)N[C@@H](CCC(=O)O)C(=O)N[C@@H](Cc1ccccc1)C(=O)O` [compound 41]: the IC50 is 16 nM at HLA A2402 and 1260 nM on HLA A3002.
For the molecule VFTFPNPFPF [compound 62], the IC50 on HLA A2902 is 603 nM; on HLA A2302 it was 12 nM; on HLA A3002, above 20000 nM.
For “141 (RFHNIRGRW; Human papillomavirus type 16) [compound 141]”, the “Delta SFC/10^6 cells” value in assay [1] (setting [3]) worked out at 205 SFC/10^6 cells; in assay [2] (setting [4]), 3 SFC/10^6 cells; in assay [2] (setting [5]) it was 1 SFC/10^6 cells. The Ratio came to 6.9 in assay [1] (setting [3]), 1.1 in assay [2] (setting [4]) and 1.0 in assay [2] (setting [5]).
Regarding “154 (FYSRIRELRY; Human papilloma virus) [compound 154]”, in assay [1], the “Peptide Pool SFC/10^6 cells Delta” value stood at 165 SFC/10^6 cells and the “Peptide Pool SFC/10^6 cells Ratio” value was found to be 7.3. In assay [2], the “ICCG6137 SFC/10^6 cells Delta” value is reported as 45 SFC/10^6 cells, the “ICCG6137 SFC/10^6 cells Ratio” value was determined as 2.0, the “ICCG6138 SFC/10^6 cells Delta” value came out at 33 SFC/10^6 cells and the “ICCG6138 SFC/10^6 cells Ratio” value worked out at 1.3.
Take “143 (LYNLLIRWL; Human papillomavirus type 18-derived epitope) [compound 143]”: the results for the “Delta SFC/10^6 cells” value in assay [1] (setting [3]), in assay [2] (setting [4]) and in assay [2] (setting [5]) were 30 SFC/10^6 cells, 3 SFC/10^6 cells and 1 SFC/10^6 cells, respectively. For the same molecule, the results for the Ratio in assay [1] (setting [3]), in assay [2] (setting [4]) and in assay [2] (setting [5]) were 1.5, 1.0 and 1.0, respectively.
As to SYFGMSFIHF [compound 39], the IC50 at HLA A2402 was found to be 17.5 nM; on HLA A3002, 1540 nM.
“133 (YMLDLQPETT; Human papillomavirus type 16) [compound 133]”: the results for the “Delta SFC/10^6 cells” value in assay [1] (setting [6]), in assay [2] (setting [7]) and in assay [2] (setting [8]) were 1 SFC/10^6 cells, 5 SFC/10^6 cells and 10 SFC/10^6 cells, respectively. Besides, the values for the Ratio in assay [1] (setting [6]), in assay [2] (setting [7]) and in assay [2] (setting [8]) were 1.0, 1.4 and 3.3, respectively.
In the case of “146 (QAEPDTSNY; Human papillomavirus type 31) [compound 146]”, in assay [1], the “Peptide Pool SFC/10^6 cells Delta” value was found to be 4 SFC/10^6 cells and the “Peptide Pool SFC/10^6 cells Ratio” value is 1.2. Besides, in assay [2], the “ICCG6138 SFC/10^6 cells Delta” value came out at 23 SFC/10^6 cells and the “ICCG6138 SFC/10^6 cells Ratio” value is given as 2.5.
On to “134 (GTLGIVCPI; Human papillomavirus type 16) [compound 134]”, for which the results for the “Delta SFC/10^6 cells” value in assay [1] (setting [6]), in assay [2] (setting [7]) and in assay [2] (setting [8]) were 55 SFC/10^6 cells, 1 SFC/10^6 cells and 3 SFC/10^6 cells, respectively. Further, the Ratio in assay [1] (setting [6]) came out at 8.0; in assay [2] (setting [7]), 1.0; in assay [2] (setting [8]) it was 1.7.
“138 (FVVYRDSIPH; Human papillomavirus type 18) [compound 138]”: the “Delta SFC/10^6 cells” value in assay [1] (setting [9]) was 110 SFC/10^6 cells; in assay [2] (setting [10]), 1 SFC/10^6 cells; in assay [2] (setting [11]) it was 1 SFC/10^6 cells. Also, the figures for the Ratio in assay [1] (setting [9]), in assay [2] (setting [10]) and in assay [2] (setting [11]) were 1.3, 1.0 and 1.0, respectively.
Turning to “151 (RTEVYQFAFK; Human papillomavirus type 45) [compound 151]”, in assay [1], the “Peptide Pool SFC/10^6 cells Delta” value was determined as 1 SFC/10^6 cells and the “Peptide Pool SFC/10^6 cells Ratio” value is 1.0. In addition, in assay [2], the “ICCG6137 SFC/10^6 cells Delta” value is given as 1 SFC/10^6 cells, the “ICCG6137 SFC/10^6 cells Ratio” value was 1.0, the “ICCG6138 SFC/10^6 cells Delta” value was 1 SFC/10^6 cells and the “ICCG6138 SFC/10^6 cells Ratio” value worked out at 1.0.
With NTELYNLLI [compound 70], the IC50 on HLA A2902 and at HLA A3002 was above 20000 nM in each case.
“150 (TLQEIVLHL; Human papillomavirus type 45) [compound 150]”: in assay [1], the “Peptide Pool SFC/10^6 cells Delta” value turned out to be 70 SFC/10^6 cells and the “Peptide Pool SFC/10^6 cells Ratio” value is 8.0. In assay [2], the “ICCG6137 SFC/10^6 cells Delta” value amounted to 5 SFC/10^6 cells, the “ICCG6137 SFC/10^6 cells Ratio” value turned out to be 2.0, the “ICCG6138 SFC/10^6 cells Delta” value came out at 3 SFC/10^6 cells and the “ICCG6138 SFC/10^6 cells Ratio” value is 1.3.
